Patent publication US8623871B2, “Substituted biaryl compounds for inflammation and immune-related uses” (Synta Pharmaceuticals Corp., priority 2006, dated 2014)
Structures can show the parent of a compound that is named as a salt.

The molecules below were run on IL-2 production (assay: Inhibition of IL-2 production in PHA-activated Jurkat cells (ELISA)). Conditions: Homo sapiens, 20 h, PHA 2.5 μg/mL, IL-2 ELISA.
Type: cell-based
Protocol: Jurkat cells were placed in a 96 well plate (0.5 million cells per well in 1% FBS medium) then a test compound of this invention was added at different concentrations. After 10 minutes, the cells were activated with PHA (final concentration 2.5 μg/mL) and incubated for 20 hours at 37° C. under CO2. The final volume was 200 μL. Following incubation, the cells were centrifuged and the supernatants collected and stored at −70° C. prior to assaying for IL-2 production. A commercial ELISA kit (IL-2 Eli-pair, Diaclone Research, Besancon, France) was used to detect production of IL-2, from which dose response curves were obtained. The IC50 value was calculated as the concentration at which 50% of maximum IL-2 production after stimulation was inhibited versus a non-stimulation control.

IC50 [nM] | Structure (SMILES)
> 500 | Cc1ccc(-c2ncco2)cc1-c1ccc(NC(=O)[C@@H](N)C(C)C)cc1 (stereo in doubt) [Compound 123, 2-Amino-3-methyl-N-(2′-methyl-5′-oxazol-2-yl-biphenyl-4-yl)-butyramide]
> 500 | CC(=O)Nc1ccc(-c2cc(-c3ncco3)ccc2C)cc1 [Compound 1, N-(2′-Methyl-5′-oxazol-2-yl-biphenyl-4-yl)-acetamide]
50 to 100 | CCC(=O)Nc1ccc(-c2cc(-c3ncco3)ccc2C)cc1 [Compound 2, N-(2′-Methyl-5′-oxazol-2-yl-biphenyl-4-yl)-propionamide]
< 20 | CCCC(=O)Nc1ccc(-c2cc(-c3ncco3)ccc2C)cc1 [Compound 3, N-(2′-Methyl-5′-oxazol-2-yl-biphenyl-4-yl)-butyramide]
< 20 | Cc1ccc(-c2ncco2)cc1-c1ccc(NC(=O)C(C)C)cc1 [Compound 4, N-(2′-Methyl-5′-oxazol-2-yl-biphenyl-4-yl)-isobutyramide]
50 to 100 | Cc1ccc(-c2ncco2)cc1-c1ccc(NC(=O)C2CC2)cc1 [Compound 5, Cyclopropanecarboxylic acid (2′-methyl-5′-oxazol-2-yl-biphenyl-4-yl)-amide]
20 to 50 | Cc1ccc(-c2ncco2)cc1-c1ccc(NC(=O)C2CCC2)cc1 [Compound 6, Cyclobutanecarboxylic acid (2′-methyl-5′-oxazol-2-yl-biphenyl-4-yl)-amide]
100 to 500 | Cc1ccc(-c2ncco2)cc1-c1ccc(NC(=O)C2CCCCN2C)cc1 (centres unmarked) [Compound 8, 1-Methyl-piperidine-2-carboxylic acid (2′-methyl-5′-oxazol-2-yl-biphenyl-4-yl)-amide]
> 500 | CCC(C(=O)Nc1ccc(-c2cc(-c3ncco3)ccc2C)cc1)N(C)C (centres unmarked) [Compound 9, 2-Dimethylamino-N-(2′-methyl-5′-oxazol-2-yl-biphenyl-4-yl)-butyramide Hydrochloride]
> 500 | Cc1ccc(-c2ncco2)cc1-c1ccc(NC(=O)C(N)CC(C)C)cc1 (centres unmarked) [Compound 10, 2-Amino-4-methyl-pentanoic acid (2′-methyl-5′-oxazol-2-yl-biphenyl-4-yl)-amide]
> 1000 | Cc1ccc(-c2ncco2)cc1-c1ccc(NC(=O)CN)cc1 [Compound 11, 2-Amino-N-(2′-methyl-5′-oxazol-2-yl-biphenyl-4-yl)-acetamide]
100 to 500 | Cc1ccc(-c2ncco2)cc1-c1ccc(NC(=O)Cc2ccc(Cl)cc2)cc1 [Compound 35, 2-(4-Chloro-phenyl)-N-(2′-methyl-5′-oxazol-2-yl-biphenyl-4-yl)-acetamide]
< 20 | Cc1ccc(-c2ncco2)cc1-c1ccc(NC(=O)C2CCCCC2)cc1 [Compound 106, N-(2′-methyl-5′-(oxazol-2-yl)biphenyl-4-yl)cyclohexanecarboxamide]
100 to 500 | Cc1ccc(-c2ncco2)cc1-c1ccc(NCC(C)C)cc1 [Compound 144, N-isobutyl-2′-methyl-5′-(oxazol-2-yl)biphenyl-4-amine]
> 1000 | Cc1ccc(-c2ncco2)cc1-c1ccc(NCCO)cc1 [Compound 145, 2-(2′-methyl-5′-(oxazol-2-yl)biphenyl-4-ylamino)ethanol]
> 1000 | Cc1ccc(-c2ncco2)cc1-c1ccc(NC(=O)N2CCN(C)CC2)cc1 [Compound 146, 4-Methyl-piperazine-1-carboxylic acid (2′-methyl-5′-oxazol-2-yl-biphenyl-4-yl)-amide]
> 1000 | CCOC(=O)CNc1ccc(-c2cc(-c3ncco3)ccc2C)cc1 [Compound 147, ethyl 2-(2′-methyl-5′-(oxazol-2-yl)biphenyl-4-ylamino)acetate]

The next lines start with the molecule.

Structure (SMILES) | IC50 [nM]
Cc1ccc(-c2ncco2)cc1-c1ccc(NC(=O)/C=C/c2ccccc2)cc1 [Compound 48, N-(2′-Methyl-5′-oxazol-2-yl-biphenyl-4-yl)-3-phenyl-acrylamide] | 100 to 500
O=C(Nc1ccc(-c2cc(C(F)(F)F)ccc2Cl)cc1)C1CCCCC1 [Compound 107, N-(2′-chloro-5′-(trifluoromethyl)biphenyl-4-yl)cyclohexanecarboxamide] | < 20
O=C(Nc1ccc(-c2cc(C(F)(F)F)ccc2Cl)cc1)C1CCCC1 [Compound 108, N-(2′-chloro-5′-(trifluoromethyl)biphenyl-4-yl)cyclopentanecarboxamide] | 20 to 50
Cc1ccc(-c2ncco2)cc1-c1ccc(NC(=S)Cc2ccc(F)cc2F)cc1 [Compound 124, 2-(2,4-Difluoro-phenyl)-N-(2′-methyl-5′-oxazol-2-yl-biphenyl-4-yl)-thioacetamide] | 50 to 100
O=C(Nc1ccc(-c2cc(C(F)(F)F)ccc2Cl)cc1)C1CC1 [Compound 125, N-(2′-chloro-5′-(trifluoromethyl)biphenyl-4-yl)cyclopropanecarboxamide] | 100 to 500
O=C(Nc1ccc(-c2cc(C(F)(F)F)ccc2Cl)cc1)C1CCCN1 (centres unmarked) [Compound 126, N-(2′-chloro-5′-(trifluoromethyl)biphenyl-4-yl)pyrrolidine-2-carboxamide] | > 1000
O=C(Nc1ccc(-c2cc(C(F)(F)F)ccc2Cl)cc1)C1CC=CCC1 (centres unmarked) [Compound 127, N-(2′-chloro-5′-(trifluoromethyl)biphenyl-4-yl)cyclohex-3-enecarboxamide] | 50 to 100
CC1CCCCC1C(=O)Nc1ccc(-c2cc(C(F)(F)F)ccc2Cl)cc1 (centres unmarked) [Compound 128, N-(2′-chloro-5′-(trifluoromethyl)biphenyl-4-yl)-2-methylcyclohexanecarboxamide] | 100 to 500
O=C(Nc1ccc(-c2cc(C(F)(F)F)ccc2Cl)cc1)C1CCNCC1 [Compound 129, N-(2′-chloro-5′-(trifluoromethyl)biphenyl-4-yl)piperidine-4-carboxamide] | > 1000
O=C(Nc1ccc(-c2cc(C(F)(F)F)ccc2Cl)cc1)C1CC2CCC1C2 (centres unmarked) [Compound 130, N-(2′-chloro-5′-(trifluoromethyl)biphenyl-4-yl)bicyclo[2.2.1]heptane-2-carboxamide] | 100 to 500
O=C(Nc1ccc(-c2cc(C(F)(F)F)ccc2Cl)cc1)C1CC2C=CC1C2 (centres unmarked) [Compound 132, N-(2′-chloro-5′-(trifluoromethyl)biphenyl-4-yl)bicyclo[2.2.1]hept-5-ene-2-carboxamide] | > 500
CN1CCC(C(=O)Nc2ccc(-c3cc(C(F)(F)F)ccc3Cl)cc2)CC1 [Compound 133, N-(2′-chloro-5′-(trifluoromethyl)biphenyl-4-yl)-1-methylpiperidine-4-carboxamide] | > 1000
CN1CCCC1C(=O)Nc1ccc(-c2cc(C(F)(F)F)ccc2Cl)cc1 (centres unmarked) [Compound 134, N-(2′-chloro-5′-(trifluoromethyl)biphenyl-4-yl)-1-methylpyrrolidine-2-carboxamide] | > 1000
CCCCNCc1ccc(-c2cc(-c3ncco3)ccc2C)cc1 [Compound 135, N-((2′-methyl-5′-(oxazol-2-yl)biphenyl-4-yl)methyl)butan-1-amine] | > 1000
C=CCNCc1ccc(-c2cc(-c3ncco3)ccc2C)cc1 [Compound 136, N-((2′-methyl-5′-(oxazol-2-yl)biphenyl-4-yl)methyl)prop-2-en-1-amine] | > 1000
CCCNCc1ccc(-c2cc(-c3ncco3)ccc2C)cc1 [Compound 137, N-((2′-methyl-5′-(oxazol-2-yl)biphenyl-4-yl)methyl)propan-1-amine] | > 1000
CCCCNc1ccc(-c2cc3c(cc2C)OCO3)cc1 [Compound 141, N-butyl-4-(6-methylbenzo[d][1,3]dioxol-5-yl)aniline] | 100 to 500
CCCCNc1ccc(-c2cc(C(=O)OC)ccc2C)cc1 [Compound 142, methyl 4′-(butylamino)-6-methylbiphenyl-3-carboxylate] | 100 to 500
